The values below come from patent publication US7745578B2, “Fugetactic proteins, compositions and methods of use” (The General Hospital Corporation, priority 2003, dated 2010).

For data set [1], the system named is murine T-cells. As to the kind of experiment: Quantitative transmigration assay (ChemoTx), negative gradients of EL4 conditioned media. The data set is classed as cell-based, C57BL/6 mice. Particulars: compared with untreated EL4CM24. The procedure:
C57BL/6 mice (4 to 8 weeks old) (Jackson Laboratories; Bar Harbor Me.) were euthanized, and dissection of superficial cervical, axillary, brachial and inguinal lymph nodes was performed under sterile conditions. Dissected lymph nodes were then physically disaggregated and a cell suspension generated. The cell suspension was then enriched for T cells by depletion of non-T cells using MACS Pan T cell isolation kit for mouse leukocytes (Miltenyi Biotec; Auburn, Calif.).
Quantitative transmigration assays were carried out as described previously. In brief, ChemoTx chemotaxis 30 μl well plates with 3 μm pore size filters (Neuro Probe; Gaithersburg, Md.) were used. 20,000 murine T-cells were loaded in the upper chamber of the ChemoTx system and subjected to positive, negative and uniform gradients of EL4CM24 in a standard checkerboard analysis of cell migration. The peak concentrations used in each gradient were 1 in 2, 1 in 10, and 1 in 100 dilutions of EL4CM24 with 10.5 media; Isocove's supplemented with 0.5% fetal calf serum, 50 units/ml Penicillin, 50 μg/ml Streptomycin and 292 μg/ml L-Glutamine (Mediatech; Herndon, Va.). […] The chemotactic index was calculated as the quotient of the average number of cells migrating in response to EL4CM24 and the average number of cells migrating in response to media alone. […]

Data set [2] concerns T-cell infiltration into the peritoneal cavity. In words: Intraperitoneal injection of conditioned media and analysis of lymphocyte infiltration. Particulars: after immunoprecipitation of HSP90α from EL-4 CM with a monoclonal antibody; immune challenge in vivo. More on the design: species or system BALB/c-DO11 mice. The procedure:
BALB/c-DO11 mice (kindly provided by Dr. Iacomini, Massachusetts General Hospital) were primed by subcutaneous injection with 100 μl of ovalbumin (ICN Biomedicals; Costa Mesa, Calif.) dissolved in Freund's complete adjuvant (Pierce Biotechnology; Rockford, Ill.) at a concentration 1 mg/ml. Three days later, mice were injected intraperitoneally with 250 μl of ovalbumin dissolved in sterile water at concentration a 0.4 mg/ml. 24 hours later, experimental mice were injected intraperitoneally with 250 μl of EL4CM24, while control mice were injected intraperitoneally with 250 μl of HSF media or protease treated EL4CM24. 24 hours later, cells were extracted from the intraperitoneal space by lavage with 5 ml of cold phosphate buffered saline (Mediatech; Herndon, Va.) and aspiration with a 10 ml syringe and 21-gauge needle. Peritoneal lavage cells were counted on a hemocytometer and then immuno-stained for anti-CD3, CD4, CD8 and TCR-kj-OVA lymphocyte expression (BD BioSciences; San Jose, Calif.) and anti-CD4 (Caltag Laboratories; Burlingame, Calif.) with antibodies labelled with Percp and PE (phytoerythrin) known fluorophor labels. T-cells expressing CD3+, CD3+ CD4+, CD3+ CD8+, CD3+ TCR-kj-OVA were then determined by FACS analysis.

In data set [3] the test system is EL4 cells. In words: Viability of EL4 cells after inhibitor treatment. It counts as cell-based. To be noted: EL4 cells in HSF, Brefeldin A 10 μg/ml for 24 hours. The procedure:
EL4CM24 was heat inactivated at 42° C. for 1 hour prior to being used in the transmigration assays described above. […] EL4CM24 was incubated with hydrated proteinase K agarose (Sigma-Aldrich; St. Louis, Mo.) at 1 mg/ml for 1 hour at 37° C. in a 5% CO2 humidified incubator then filtered through a 0.2 μm pore-size filter prior to being used in the transmigration and intraperitoneal assays. Murine T-cells were incubated with pertussis toxin (Sigma-Aldrich; St. Louis, Mo.) at 100 ng/ml for 1 hour at 37° C. in a 5% CO2 humidified incubator, prior to being used in the transmigration assays. EL4CM24 was incubated with radiciol (Sigma-Aldrich; St. Louis, Mo.) for two hours at room temperature at concentrations 0.1 μg/ml and 7.3 μg/ml. The transmigration was then carried out using the EL4CM24 mixture. As a control, transmigration assays were also carried out using gradients of HSF media supplemented with 7.3 μg/ml of radicol or using EL4CM24-radicicol mixtures from which excess radiciol had been removed using 5 kDa size exclusion Centricon Ultrafree filters (Millipore; Billerica, Mass.). EL4 cells in HSF were also exposed to Geldanamycin at 1.2 μM or 200 nM prior to use of the CM in transmigration assays. EL4 cells in HSF were also exposed to Brefeldin A at 10 μg/ml overnight for a full 24 hours prior to use of the EL4CM24 in transmigration assays. […]

Take pertussis toxin: the “level of migration of lymphocytes” value in data set [1] is “significantly reduced”. On the same count and under the same terms, as for `C[C@@H]1C[C@H]2O[C@@H]2/C=C\C=C\C(=O)Cc2c(Cl)c(O)cc(O)c2C(=O)O1` [radicicol], the entry is “not significantly reduced”. Take “HSP90α: heat shock protein in EL-4 conditioned medium, removed by immunoprecipitation with a monoclonal antibody”: the “reduction in the fugetactic effect of the CM on T-cells infiltrating the peritoneal cavity” value in data set [2] is “four-fold reduction”.

For the compound `C[C@H]1CCC/C=C/[C@@H]2C[C@H](O)C[C@H]2[C@H](O)/C=C/C(=O)O1` [Brefeldin A], the viability result in data set [3] was “Greater than 65%”.
